Experimental data reported in US20250151724A1, “Liquid Soil Treatments Containing Choline” (Harrell's, LLC, priority 2023, published 2025).

System: creeping bentgrass
Test: Experiment No. 1: growth chamber pot trial, foliar GB and choline under heat and mild drought stress
Format: in vivo
Settings: for Root Viability: TTC method
Method: A growth chamber pot trial was conducted as follows. […] The choline used in this study was supplied in the form of choline chloride from Sigma-Aldrich, Inc. (St. Louis, MO). […] These conditions simulated summer putting green stress. The treatments were as follows: • 1. […] GB at 0.5 oz./1,000 ft^2 every 14 days. • 3. GB at 1.0 oz./1,000 ft^2 every 14 days. • 4. […] The rate and source of fertilization for treatments #2-7 was the same as treatment #1 (fertilized control), so all seven treatments received identical fertility input. […] The term “low rate” is used in this description of Experiment No. 1 to refer to 0.5 oz./1,000 ft^2 treatments, while the term “high rate” is used to refer to 1.0 oz./1,000 ft^2 treatments. […] Photochemical efficiency (PE). Photochemical Efficiency was measured with a chlorophyll fluorometer (OS-50II, Opti-Sciences, Inc., Hudson, NH) biweekly based on the Fv/Fm, which is the ratio of variable chlorophyll fluorescence (Fv) to maximum chlorophyll fluorescence (Fm). […] Chlorophyll content. After clipping yields were weighed, leaf tissues were ground into powder, and chlorophyll was extracted in pure acetone content for 72 hours, and the absorbance was measured using a spectrophotometer. • e. Leaf carotenoids were extracted in the same sample as for chlorophyll content and carotenoids were measured using a spectrophotometer (Zhang et al., 2005). • f. Leaf proline content. […] After centrifuging, the supernatant was collected, and proline was analyzed according to Wu et al., 2017. • g. Root viability. […] Root growth characteristics. At the end of trial, roots from each pot were washed and cleaned. Roots were scanned using WinRHIZOTM technology (Regent Instruments Inc., Quebec, Canada), and root length, root surface area, root diameter, and root volume were calculated. (Zhang et al., 2017). • i. Root biomass of each pot was determined at the end of the trial. Roots were dried at 65° C. for 72 hours before being weighed.

In the case of `C[N+](C)(C)CC(=O)[O-]` [GB, Glycine betaine, reference compound], the Clippings dry wt (0.5 oz/1000 ft^2, Total) is reported as 0.686bc g/pot, the Carotenoids (0.5 oz/1000 ft^2, day 0) is reported as 1.31a mg/g FW and the Chlorophyll (0.5 oz/1000 ft^2, day 0) is reported as 3.43a mg/g FW. The “Leaf color (1-9, 9 = dark green)” value (0.5 oz/1000 ft^2, day 0) was 7.5a, the “PE (Fv/Fm)” value (0.5 oz/1000 ft^2, day 0) was 0.777a and the Proline (0.5 oz/1000 ft^2, day 0) was 19.0a mg/g FW. The Carotenoids (0.5 oz/1000 ft^2, day 14) was 1.31a mg/g FW, the Chlorophyll (0.5 oz/1000 ft^2, day 14) was 3.44a mg/g FW and the Clippings dry wt (0.5 oz/1000 ft^2, day 14) was 0.159ab g/pot. The “Leaf color (1-9, 9 = dark green)” value (0.5 oz/1000 ft^2, day 14) was 7.1bc, the “PE (Fv/Fm)” value (0.5 oz/1000 ft^2, day 14) was 0.744ab and the Proline (0.5 oz/1000 ft^2, day 14) was 21.2bc mg/g FW. The Carotenoids (0.5 oz/1000 ft^2, day 28) was 1.00ab mg/g FW, the Chlorophyll (0.5 oz/1000 ft^2, day 28) was 2.89abc mg/g FW and the Clippings dry wt (0.5 oz/1000 ft^2, day 28) was 0.143b g/pot. The “Leaf color (1-9, 9 = dark green)” value (0.5 oz/1000 ft^2, day 28) was 6.3b, the “PE (Fv/Fm)” value (0.5 oz/1000 ft^2, day 28) was 0.676ab and the Proline (0.5 oz/1000 ft^2, day 28) was 35.1a mg/g FW. The Carotenoids (0.5 oz/1000 ft^2, day 42) was 1.13a mg/g FW, the Chlorophyll (0.5 oz/1000 ft^2, day 42) was 2.80ab mg/g FW and the Clippings dry wt (0.5 oz/1000 ft^2, day 42) was 0.152a g/pot. For the same molecule, the “Leaf color (1-9, 9 = dark green)” value (0.5 oz/1000 ft^2, day 42) was 6.9ab, the “PE (Fv/Fm)” value (0.5 oz/1000 ft^2, day 42) was 0.668ab and the Proline (0.5 oz/1000 ft^2, day 42) was 34.9bc mg/g FW. The Carotenoids (0.5 oz/1000 ft^2, day 56) was 1.08ab mg/g FW, the Chlorophyll (0.5 oz/1000 ft^2, day 56) was 2.63abc mg/g FW and the Clippings dry wt (0.5 oz/1000 ft^2, day 56) was 0.233ab g/pot. The “Leaf color (1-9, 9 = dark green)” value (0.5 oz/1000 ft^2, day 56) was 6.3bc, the “PE (Fv/Fm)” value (0.5 oz/1000 ft^2, day 56) was 0.646ab and the Proline (0.5 oz/1000 ft^2, day 56) was 62.9ab mg/g FW. For the same molecule, the “Root Biomass” value (0.5 oz/1000 ft^2, end of trial) was 1.34b g/pot, the “Root Diameter” value (0.5 oz/1000 ft^2, end of trial) was 0.189ab mm and the “Root Length” value (0.5 oz/1000 ft^2, end of trial) was 33.1b mm/cm^3. For the same molecule, the “Root Volume” value (0.5 oz/1000 ft^2, end of trial) was 9.6a dm^3/cm^3, the “Root Viability” value (0.5 oz/1000 ft^2, end of trial) was 0.877abcd A490/g FW and the Clippings dry wt (1.0 oz/1000 ft^2, Total) was 0.876a g/pot. For the same molecule, the Carotenoids (1.0 oz/1000 ft^2, day 0) was 1.30a mg/g FW, the Chlorophyll (1.0 oz/1000 ft^2, day 0) was 3.42a mg/g FW and the “Leaf color (1-9, 9 = dark green)” value (1.0 oz/1000 ft^2, day 0) was 7.5a. For the same molecule, the “PE (Fv/Fm)” value (1.0 oz/1000 ft^2, day 0) was 0.743a, the Proline (1.0 oz/1000 ft^2, day 0) was 18.6a mg/g FW and the Carotenoids (1.0 oz/1000 ft^2, day 14) was 1.31a mg/g FW. The Chlorophyll (1.0 oz/1000 ft^2, day 14) was 3.43a mg/g FW, the Clippings dry wt (1.0 oz/1000 ft^2, day 14) was 0.211a g/pot and the “Leaf color (1-9, 9 = dark green)” value (1.0 oz/1000 ft^2, day 14) was 7.3abc. For the same molecule, the “PE (Fv/Fm)” value (1.0 oz/1000 ft^2, day 14) was 0.765a, the Proline (1.0 oz/1000 ft^2, day 14) was 21.6bc mg/g FW and the Carotenoids (1.0 oz/1000 ft^2, day 28) was 1.02b mg/g FW. The Chlorophyll (1.0 oz/1000 ft^2, day 28) was 2.71bc mg/g FW, the Clippings dry wt (1.0 oz/1000 ft^2, day 28) was 0.225a g/pot and the “Leaf color (1-9, 9 = dark green)” value (1.0 oz/1000 ft^2, day 28) was 7.0a. The “PE (Fv/Fm)” value (1.0 oz/1000 ft^2, day 28) was 0.715ab, the Proline (1.0 oz/1000 ft^2, day 28) was 25.8b mg/g FW and the Carotenoids (1.0 oz/1000 ft^2, day 42) was 0.99ab mg/g FW. For the same molecule, the Chlorophyll (1.0 oz/1000 ft^2, day 42) was 2.47ab mg/g FW, the Clippings dry wt (1.0 oz/1000 ft^2, day 42) was 0.189a g/pot and the “Leaf color (1-9, 9 = dark green)” value (1.0 oz/1000 ft^2, day 42) was 6.5b. For the same molecule, the “PE (Fv/Fm)” value (1.0 oz/1000 ft^2, day 42) was 0.673ab, the Proline (1.0 oz/1000 ft^2, day 42) was 38.9abc mg/g FW and the Carotenoids (1.0 oz/1000 ft^2, day 56) was 0.96ab mg/g FW. The Chlorophyll (1.0 oz/1000 ft^2, day 56) was 2.55bc mg/g FW, the Clippings dry wt (1.0 oz/1000 ft^2, day 56) was 0.252a g/pot and the “Leaf color (1-9, 9 = dark green)” value (1.0 oz/1000 ft^2, day 56) was 6.4abc. The “PE (Fv/Fm)” value (1.0 oz/1000 ft^2, day 56) was 0.651a, the Proline (1.0 oz/1000 ft^2, day 56) was 68.5a mg/g FW and the “Root Biomass” value (1 oz/1000 ft^2, end of trial) was 1.64ab g/pot. The “Root Diameter” value (1 oz/1000 ft^2, end of trial) was 0.174b mm, the “Root Length” value (1 oz/1000 ft^2, end of trial) was 40.3ab mm/cm^3 and the “Root Volume” value (1 oz/1000 ft^2, end of trial) was 9.7a dm^3/cm^3. The “Root Viability” value (1 oz/1000 ft^2, end of trial) was 1.076ab A490/g FW.
